Laboratory results taken from patent EP4800015A1, “AZABICYCLO DERIVATIVE AND PREPARATION METHOD THEREFOR, AND USE” (Zhejiang Hisun Pharmaceutical Co., Ltd., priority 2023, dated 2025).

Biological target: T1, recombinant human WRN (Homo sapiens, UniProt Q14191)
T1 construct: purchased BPS 101264
Experiment: Inhibition of WRN enzyme activity (ATPase), ADP-Glo Kinase Assay
Format: biochemical
Conditions: WRN protein 5 nM, Flap 0.1 nM, ATP 30 µM; read-out: IC50
Excerpt: The following method was used to determine the degree of inhibition of recombinant human WRN ATPase activity by the compounds of the present disclosure in vitro. In this method, ADP-Glo™ Kinase Assay kit (catalog No. V9102) from Promega was used. Detailed experimental procedures can be found in the kit manual.
The experimental procedure was briefly described as follows: test compounds were first dissolved in DMSO to prepare stock solutions, followed by serial dilution using reaction buffer (30 mM Tris, pH 7.5, 2 mM MgCl2, 50 mM NaCl, 0.02% BSA, 0.1% Pluronic F127), with final concentrations of test compounds in the reaction system ranging from 1000 nM to 0.004 nM; WRN protein (purchased from BPS, catalog No. 101264), substrate 5-flap oligonucleotide (Flap26) (synthesized by Shanghai Generay Biotech Co., Ltd., sequence 5'-[…]-3'), and ATP working solution (from ADP-Glo™ Kinase Assay kit component V915A) were prepared using reaction buffer. Reactions were performed in 384-well microplates. At first the compounds and recombinant human WRN protein (final concentration 5 nM) were added to the wells and the plate was incubated at room temperature for 15 minutes, then Flap solution (final concentration 0.1 nM) and ATP solution (final concentration 30 µM) were added to the reaction solution and the plate was incubated at room temperature for 10 minutes. Subsequently, 5 µL of ADP-Glo Reagent was added to the reaction system and incubated at room temperature for 40 minutes. Then 10 µL of Kinase Detection Reagent was added to the reaction system and incubated at room temperature for 30 minutes. After the incubation was completed, chemiluminescence intensity values of each well were measured using a microplate reader in luminescence mode. The percentage inhibition of the compounds at each concentration was calculated by comparison with the luminescence intensity values of the control group (0.1% DMSO), and IC50 values of compounds were obtained by nonlinear regression analysis of compound concentration logarithm-inhibition rate using GraphPad Prism 9 software, as shown in Table 1.
The IC50 value results of the compounds of the present disclosure are expressed as AA and A, respectively as follows: "AA" indicates IC50 ≤ 1 nM; "A" indicates 1 nM < IC50 ≤ 100 nM. Table 1 IC50 of the compounds of the present disclosure for inhibiting WRN enzyme activity (ATPase)

T1 sequence (Q14191 whole entry): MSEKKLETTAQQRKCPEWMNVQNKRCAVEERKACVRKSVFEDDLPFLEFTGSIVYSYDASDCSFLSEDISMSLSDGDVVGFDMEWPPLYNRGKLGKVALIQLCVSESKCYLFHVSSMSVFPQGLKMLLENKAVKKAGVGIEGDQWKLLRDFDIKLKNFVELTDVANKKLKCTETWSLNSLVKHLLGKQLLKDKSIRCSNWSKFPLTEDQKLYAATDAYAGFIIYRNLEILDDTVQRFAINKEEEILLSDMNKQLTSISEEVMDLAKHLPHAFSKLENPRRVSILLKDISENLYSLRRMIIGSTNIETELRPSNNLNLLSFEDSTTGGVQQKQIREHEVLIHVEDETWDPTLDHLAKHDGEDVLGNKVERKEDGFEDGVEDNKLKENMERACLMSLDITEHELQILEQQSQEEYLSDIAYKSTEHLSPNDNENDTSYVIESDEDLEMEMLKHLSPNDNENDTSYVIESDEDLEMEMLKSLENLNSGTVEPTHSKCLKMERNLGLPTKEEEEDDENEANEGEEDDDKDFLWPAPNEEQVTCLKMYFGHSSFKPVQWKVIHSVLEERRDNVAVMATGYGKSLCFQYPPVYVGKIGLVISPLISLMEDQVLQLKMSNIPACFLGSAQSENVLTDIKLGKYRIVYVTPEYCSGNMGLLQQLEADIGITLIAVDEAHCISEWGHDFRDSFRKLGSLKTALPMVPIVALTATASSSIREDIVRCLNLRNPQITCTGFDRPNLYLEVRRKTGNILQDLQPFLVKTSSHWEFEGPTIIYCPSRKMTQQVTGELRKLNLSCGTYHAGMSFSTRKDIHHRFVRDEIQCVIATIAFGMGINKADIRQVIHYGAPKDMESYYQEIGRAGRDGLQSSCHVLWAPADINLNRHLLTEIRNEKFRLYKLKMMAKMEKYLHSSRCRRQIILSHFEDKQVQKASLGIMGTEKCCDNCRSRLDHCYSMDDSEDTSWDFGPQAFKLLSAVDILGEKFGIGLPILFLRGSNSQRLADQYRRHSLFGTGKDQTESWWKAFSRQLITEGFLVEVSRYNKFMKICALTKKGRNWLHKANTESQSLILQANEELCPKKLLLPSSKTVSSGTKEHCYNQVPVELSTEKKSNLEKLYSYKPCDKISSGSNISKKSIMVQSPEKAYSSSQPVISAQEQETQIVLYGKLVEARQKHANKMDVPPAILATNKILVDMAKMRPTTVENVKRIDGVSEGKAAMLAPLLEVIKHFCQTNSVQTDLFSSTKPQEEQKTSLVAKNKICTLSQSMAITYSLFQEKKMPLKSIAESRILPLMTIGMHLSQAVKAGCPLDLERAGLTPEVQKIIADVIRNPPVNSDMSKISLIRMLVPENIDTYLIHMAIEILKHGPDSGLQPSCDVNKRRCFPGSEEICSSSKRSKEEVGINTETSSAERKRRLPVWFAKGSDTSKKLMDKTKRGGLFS

Row | IC50 | SMILES
1 | 1 to 100 nM | CCc1c(N2CCN(C(=O)c3ncnc(C)c3O)CC2)c(=O)n2nc(N3CCC4(CCNC4=O)CC3)nc2n1CC(=O)Nc1ccc(C(F)(F)F)cc1Cl [Example 13, N-(2-chloro-4-(trifluoromethyl)phenyl)-2-(5-ethyl-6-(4-(5-hydroxy-6-methylpyrimidine-4-carbonyl)piperazin-1-yl)-7-oxo-2-(1-oxo-2,8-diazaspiro[4.5]decan-8-yl)-[1,2,4]triazolo[1,5-a]pyrimidin-4(7H)-yl)acetamide]
2 | 1 to 100 nM | CCc1c(N2CCN(C(=O)c3ccncc3O)CC2)c(=O)n2nc(C3=CC4CC(=O)CC4C3)nc2n1CC(=O)Nc1ccc(C(F)(F)F)cc1Cl (stereo not drawn) [Example 14, N-(2-chloro-4-(trifluoromethyl)phenyl)-2-(5-ethyl-6-(4-(3-hydroxyisonicotinoyl)piperazin-1-yl)-7-oxo-2-(5-oxo-1,3a,4,5,6,6a-hexahydropentalen-2-yl)-[1,2,4]triazolo[1,5-a]pyrimidin-4(7H)-yl)a cetamide]
3 | 1 to 100 nM | CCc1c(N2CCN(C(=O)c3ncnc(C)c3O)CC2)c(=O)n2nc(NCCCCl)nc2n1CC(=O)Nc1ccc(C(F)(F)F)cc1Cl [Example 15, N-(2-chloro-4-(trifluoromethyl)phenyl)-2-(2-((3-chloropropyl)amino)-5-ethyl-6-(4-(5-hydroxy-6-methylpyrimidine-4-carbonyl)piperazin-1-yl)-7-oxo-[1,2,4]triazolo[1,5-a]pyrimidin-4(7H)-yl)ace tamide]
4 | 1 to 100 nM | CCc1c(N2CCN(C(=O)c3ncnc(C)c3O)CC2)c(=O)n2nc(N3CC4(COC4)C3)nc2n1CC(=O)Nc1ccc(C(F)(F)F)cc1Cl [Example 16, N-(2-chloro-4-(trifluoromethyl)phenyl)-2-(5-ethyl-6-(4-(5-hydroxy-6-methylpyrimidine-4-carbonyl)piperazin-1-yl)-7-oxo-2-(2-oxa-6-azaspiro[3.3]heptan-6-yl)-[1,2,4]triazolo[1,5-a]pyrimidin-4(7H)-yl)acetamide]
5 | 1 to 100 nM | CCc1c(N2CCN(C(=O)c3ncnc(C)c3O)CC2)c(=O)n2nc(C=C3CCCCC3)nc2n1CC(=O)Nc1ccc(C(F)(F)F)cc1Cl [Example 20, N-(2-chloro-4-(trifluoromethyl)phenyl)-2-(2-(cyclohexylidenemethyl)-5-ethyl-6-(4-(5-hydroxy-6-methylpyrimidine-4-carbonyl)piperazin-1-yl)-7-oxo-[1,2,4]triazolo[1,5-a]pyrimidin-4(7H)-yl)ac etamide]
6 | 1 to 100 nM | CCc1c(N2CCN(C(=O)c3ncnc(C)c3O)CC2)c(=O)n2nc(C=C3CCOCC3)nc2n1CC(=O)Nc1ccc(C(F)(F)F)cc1Cl [Example 21, N-(2-chloro-4-(trifluoromethyl)phenyl)-2-(5-ethyl-6-(4-(5-hydroxy-6-methylpyrimidine-4-carbonyl)piperazin-1-yl)-7-oxo-2-((tetrahydro-4H-pyran-4-ylidene)methyl)-[1,2,4]triazolo[1,5-a]pyrimidin-4(7H)-yl)acetamide]
7 | 1 to 100 nM | CCc1c(N2CCN(C(=O)c3ncnc(C)c3O)CC2)c(=O)n2nc(C3=CC4CCC3C4)nc2n1CC(=O)Nc1ccc(C(F)(F)F)cc1Cl (stereo not drawn) [Example 23, 2-(2-(bicyclo[2.2.1]hept-2-en-2-yl)-5-ethyl-6-(4-(5-hydroxy-6-methylpyrimidine-4-carbonyl)piperazin-1-yl)-7-oxo-[1,2,4]triazolo[1,5-a]pyrimidin-4(7H)-yl)-N-(2-chloro-4-(trifluoromethyl)phenyl)acetamide]

Second part, the compound before the results:

Row | SMILES | IC50
8 | CCc1c(N2CCN(C(=O)c3ncnc(C)c3O)CC2)c(=O)n2nc(N3CCCOCC3)nc2n1CC(=O)Nc1ccc(C(F)(F)F)cc1Cl [Example 1, N-(2-chloro-4-(trifluoromethyl)phenyl)-2-(5-ethyl-6-(4-(5-hydroxy-6-methylpyrimidine-4-carbonyl)piperazin-1-yl)-2-(1,4-oxazepan-4-yl)-7-oxo-[1,2,4]triazolo[1,5-a]pyrimidin-4(7H)-yl)acetamide] | 1 to 100 nM
9 | CCc1c(N2CCN(C(=O)c3ncnc(C)c3O)CC2)c(=O)n2nc(C3CCCC3)nc2n1CC(=O)Nc1ccc(C(F)(F)F)cc1Cl [Example 2, N-(2-Chloro-4-(trifluoromethyl)phenyl)-2-(2-cyclopentyl-5-ethyl-6-(4-(5-hydroxy-6-methylpyrimidine-4-carbonyl)piperazin-1-yl)-7-oxo-[1,2,4]triazolo[1,5-a]pyrimidin-4(7H)-yl)acetamide] | 1 to 100 nM
10 | CCc1c(N2CCN(C(=O)c3ncnc(C)c3O)CC2)c(=O)n2nc(N3CCCCCC3)nc2n1CC(=O)Nc1ccc(C(F)(F)F)cc1Cl [Example 3, 2-(2-(Azepan-1-yl)-5-ethyl-6-(4-(5-hydroxy-6-methylpyrimidine-4-carbonyl)piperazin-1-yl)-7-oxo-[1,2,4]triazolo[1,5-a]pyrimidin-4(7H)-yl)-N-(2-chloro-4-(trifluoromethyl)phenyl)acetamide] | 1 to 100 nM
11 | CCc1c(N2CCN(C(=O)c3ncnc(C)c3O)CC2)c(=O)n2nc(C3CCCCCC3)nc2n1CC(=O)Nc1ccc(C(F)(F)F)cc1Cl [Example 4, N-(2-chloro-4-(trifluoromethyl)phenyl)-2-(2-cycloheptyl-5-ethyl-6-(4-(5-hydroxy-6-methylpyrimidine-4-carbonyl)piperazin-1-yl)-7-oxo-[1,2,4]triazolo[1,5-a]pyrimidin-4(7H)-yl)acetamide] | 1 to 100 nM
12 | CCc1c(N2CCN(C(=O)c3ncnc(C)c3O)CC2)c(=O)n2nc(C(C)C)nc2n1CC(=O)Nc1ccc(C(F)(F)F)cc1Cl [Example 5, N-(2-chloro-4-(trifluoromethyl)phenyl)-2-(5-ethyl-6-(4-(5-hydroxy-6-methylpyrimidine-4-carbonyl)piperazin-1-yl)-2-isopropyl-7-oxo-[1,2,4]triazolo[1,5-a]pyrimidin-4(7H)-yl)acetamide] | 1 to 100 nM
13 | CCc1c(N2CCN(C(=O)c3ncnc(C)c3O)CC2)c(=O)n2nc(N3CCC3)nc2n1CC(=O)Nc1ccc(C(F)(F)F)cc1Cl [Example 7, 2-(2-(azetidin-1-yl)-5-ethyl-6-(4-(5-hydroxy-6-methylpyrimidine-4-carbonyl)piperazin-1-yl)-7-oxo-[1,2,4]triazolo[1,5-a]pyrimidin-4(7H)-yl)-N-(2-chloro-4-(trifluoromethyl)phenyl)acetamide] | 1 to 100 nM
14 | CCc1c(N2CCN(C(=O)c3ncnc(C)c3O)CC2)c(=O)n2nc(N3CC4(CCOCC4)C3)nc2n1CC(=O)Nc1ccc(C(F)(F)F)cc1Cl [Example 8, N-(2-chloro-4-(trifluoromethyl)phenyl)-2-(5-ethyl-6-(4-(5-hydroxy-6-methylpyrimidine-4-carbonyl)piperazin-1-yl)-7-oxo-2-(7-oxa-2-azaspiro[3.5]nonan-2-yl)-[1,2,4]triazolo[1,5-a]pyrimidin-4(7 H)-yl)acetamide] | 1 to 100 nM
15 | CCc1c(N2CCN(C(=O)c3ccncc3O)CC2)c(=O)n2nc(C3=CCCCCC3)nc2n1CC(=O)Nc1ccc(C(F)(F)F)cc1Cl [Example 9, N-(2-chloro-4-(trifluoromethyl)phenyl)-2-(2-(cyclohept-1-en-1-yl)-5-ethyl-6-(4-(3-hydroxyisonic otinoyl)piperazin-1-yl)-7-oxo-[1,2,4]triazolo[1,5-a]pyrimidin-4(7H)-yl)acetamide] | < 1 nM
16 | CCc1c(N2CCN(C(=O)c3ccccc3O)CC2)c(=O)n2nc(C3=CCCCCC3)nc2n1CC(=O)Nc1ccc(C(F)(F)F)cc1Cl [Example 10, N-(2-chloro-4-(trifluoromethyl)phenyl)-2-(2-(cyclohept-1-en-1-yl)-5-ethyl-6-(4-(2-hydroxybenzoyl)piperazin-1-yl)-7-oxo-[1,2,4]triazolo[1,5-a]pyrimidin-4(7H)-yl)acetamide] | 1 to 100 nM
17 | CCc1c(N2CCN(C(=O)c3cccc(C)c3O)CC2)c(=O)n2nc(C3=CCCCCC3)nc2n1CC(=O)Nc1ccc(C(F)(F)F)cc1Cl [Example 11, N-(2-Chloro-4-(trifluoromethyl)phenyl)-2-(2-(cyclohept-1-en-1-yl)-5-ethyl-6-(4-(2-hydroxy-3-methylbenzoyl)piperazin-1-yl)-7-oxo-[1,2,4]triazolo[1,5-a]pyrimidin-4(7H)-yl)acetamide] | 1 to 100 nM
18 | CCc1c(N2CCN(C(=O)c3ncnc(C)c3O)CC2)c(=O)n2nc(C3CCCCC3)nc2n1CC(=O)Nc1ccc(C(F)(F)F)cc1Cl [Example 12, N-(2-Chloro-4-(trifluoromethyl)phenyl)-2-(2-cyclohexyl-5-ethyl-6-(4-(5-hydroxy-6-methylpyrimidine-4-carbonyl)piperazin-1-yl)-7-oxo-[1,2,4]triazolo[1,5-a]pyrimidin-4(7H)-yl)acetamide] | 1 to 100 nM
